From patent EP0671915B1, “USE OF IDAZOXAN AND DERIVATIVES THEREOF IN PREPARING A DRUG FOR TREATING PARKINSON'S DISEASE AND ITS DEVELOPMENT” (PIERRE FABRE MEDICAMENT, priority 1992, dated 1994)

Tests used:
neurones dopaminergiques = test: Mouse model of DSP4 + MPTP induced degeneration: cortical noradrenaline and striatal dopamine levels; format: in vivo, souris; set-up: key to Taux de NA cortical / Taux de DA striatale: * à *** niveau de dégénérescence estimé par la diminution des taux de NA cortical et DA striatale; * à *** niveau de dégénérescence estimé par la diminution des taux de NA cortical et DA striatale; * à *** niveau de dégénérescence estimé par la diminution des taux de NA cortical et DA striatale; conditions: for Taux de DA striatale / Taux de NA cortical: mice given DSP4 and MPTP, then treated, measured after end of treatment, symbol = level of degeneration
[1] = Clinical study in idiopathic Parkinson's disease patients versus 1-DOPA: motor symptoms; format: in vivo; set-up: key: 0 : pas de changements par rapport à avant le traitement; + a +++ amélioration; + a +++ amélioration; + a +++ amélioration; conditions: oral, 4 weeks; for symptômes précoces, persistance de l'amélioration après traitement / symptômes précoces, pendant traitement: eye blinking; for symptômes précoces, persistance de l'amélioration après traitement / symptômes tardifs, persistance de l'amélioration après traitement: after end of treatment; for symptômes précoces, pendant traitement / symptômes tardifs, pendant traitement: during treatment; for symptômes tardifs, persistance de l'amélioration après traitement / symptômes tardifs, pendant traitement: hypokinesia
Experimental: 20 patients ont été sélectionnés répondant aux critères idiopathiques de la maladie de Parkinson et une étude a été menée contre la 1-DOPA.
Les administrations sont effectuées pendant 4 semaines par voie orale dans une gamme de dose de 500 mg à 4 g par jour pour la 1-DOPA, et pour l'Idazoxan d'une dose initiale de 3 fois 5 mg par jour croissant à un maximum de 3 fois 40 mg par jour, le clinicien déterminant la posologie exacte pour chaque patient.
L'efficacité des traitements a été mesurée sur les symptômes moteurs, du type tremblement d'action, d'intention, de repos, sur l'hypokinésie (symptômes tardifs) et le clignement des paupières (symptôme précoce de la maladie). Les observations ont été faites pendant le traitement et après arrêt du traitement pour mettre en évidence la persistance éventuelle de l'amélioration des symptômes.

[2] = depression; 5 to 40 mg, 3 times a day for 4 weeks; versus placebo; cited from earlier work
voie nigro-striée = test: Squirrel monkey MPTP model with noradrenergic lesion (protocol analogous to Mavridis et al.); format: in vivo, singe écureuil; conditions: behavioural, biochemical and histological results
Text: L'emploi de l'idazoxan a également été étudié chez le singe écureuil selon un protocole analogue à celui de M. MAVRIDIS et al. Neuroscience 41,507 (1991).
Les résultats comportementaux, biochimiques et histologiques montrent qu'une lésion du système noradrénergique induit une dégénération de la voie nigrostriée après administration du MPTP.

| Structure (SMILES) | Taux de DA striatale (neurones dopaminergiques) | Taux de NA cortical (neurones dopaminergiques) | symptômes précoces, persistance de l'amélioration après traitement [1] | symptômes précoces, pendant traitement [1] | symptômes tardifs, persistance de l'amélioration après traitement [1] | symptômes tardifs, pendant traitement [1] | dégénérescence de neurones dopaminergiques provoquée par le DSP4 et la MPTP (neurones dopaminergiques; shown by slower fall of striatal dopamine compared with 1-DOPA (Groupe F) or apomorphine (Groupe G)) | échelle de Hamilton [2] | effet de la lésion de la voie nigro-striée (voie nigro-striée) |
| --- | --- | --- | --- | --- | --- | --- | --- | --- | --- |
| CN1CCc2cccc3c2[C@H]1Cc1ccc(O)c(O)c1-3 [G, apomorphine, reference compound] | *** | * |  |  |  |  |  |  |  |
| c1ccc2c(c1)OCC(C1=NCCN1)O2 (stereo not drawn) [idazoxan, 2-(2-(1,4-benzodioxanyl))-2-imidazoline] | * | * | ++ | ++ | + | + | ralentissement de la dégénérescence de neurones dopaminergiques | amélioration significative | diminue l'effet de la lésion de la voie nigro-striée et améliore l'évolution |
| N[C@@H](Cc1ccc(O)c(O)c1)C(=O)O [1-DOPA, reference compound] |  |  | 0 | +++ | 0 | +++ |  |  |  |
